Experiments:
[1] = test system: lung cancer in patients with idiopathic pulmonary fibrosis; test: Lung cancer prevention in idiopathic pulmonary fibrosis patients allocated to pirfenidone or non-pirfenidone group; type: in vivo, human; details: for Effect on risk of incidence of lung cancer: logistic regression analysis; for Accumulated incidence of lung cancer: FIG. 1
Source text: Thus, the present inventors evaluated the cancer chemoprevention effect of pirfenidone in idiopathic pulmonary fibrosis patients who are said to have a high risk factor of carcinogenesis. […] This efficacy was not explained by its effectiveness on idiopathic pulmonary fibrosis, and is therefore a novel activity of pirfenidone.
87 in the pirfenidone group (83 idiopathic pulmonary fibrosis, four nonspecific interstitial pneumonia) and 232 in the non-pirfenidone group (213 idiopathic pulmonary fibrosis, 18 nonspecific interstitial pneumonia, and one patient of desquamative interstitial pneumonia). The patients in the pirfenidone group received pirfenidone for 12-75 months (an average of 27.9±14.7 months). As a result, the incidence of lung cancer in the pirfenidone group was 2, whereas in the non-pirfenidone group it was 49. The duration of observation period in the pirfenidone group was 65.5±42.6 months, whereas in the control group it was 57.1±37.5 months. In addition, among 73 deaths in the non-pirfenidone group, 11 (4.7%) patients died by lung cancer, whereas among 29 deaths in the pirifenidone group, one (1.2%) patient died by lung cancer.
The accumulated incidences of lung cancer in patients with idiopathic pulmonary fibrosis not treated with pirfenidone after 1, 5, and 10 years were 0.9%, 18.3%, and 26.8%, whereas in patients treated with pirfenidone after 1, 5, and 10 years the accumulated incidences of lung cancer were 0%, 2.5%, and 6.4%.
The risk factors of incidence of lung cancer were analyzed using logistic regression analysis. As for the variables, backgrounds such as age, sex, number of packs of cigarettes smoked per day by the number of years the person has smoked (pack year), current smoking, pulmonary emphysema, stage of idiopathic pulmonary fibrosis, lung functions (% vital capacity(VC), and forced expiratory volume in 1 second as percent of forced vital capacity; FEV 1%), respiratory function (carbon monoxide lung diffusing capacity; % DLCO), and arterial oxygen partial pressure (PAO2); home oxygen therapy (use/no use), pirfenidone (use/no use), prednisolone (use/no use), N-acetyl cysteine (use/no use) and so forth were used. […] Then, the factors affecting the incidence of lung cancer were analyzed using multivariate Cox proportion hazard mode. Four variables were found as affecting factors. […] This supports the lung cancer protective efficacy of pirfenidone.

[2] = test system: acute exacerbation in patients with idiopathic pulmonary fibrosis; details: pre-treatment; non-patent document 6; cited from earlier work
malignant glioma cells = details: non-patent document 4; cited from earlier work
[3] = test system: fibrosis caused by pancreatic cancer; details: non-patent document 5; cited from earlier work

Compound	Effect on risk of incidence of lung cancer ([1]; use/no use)	Acute exacerbation caused by lung cancer surgery [2]	Death by cancer (lung cancer), % ([1]; 87 patients in pirfenidone group) [%]	Death by cancer (lung cancer), % ([1]; 87 patients in pirfenidone group, listed as pirifenidone) [%]	Incidence of lung cancer, % ([1]; 87 patients in pirfenidone group, observation 65.5 ± 42.6 months, treatment 12-75 months) [%]	Accumulated incidence of lung cancer ([1]; after 1 year) [%]	Accumulated incidence of lung cancer ([1]; after 5 years) [%]	Accumulated incidence of lung cancer ([1]; after 10 years) [%]	Effect on risk of lung cancer ([1]; multivariate Cox proportion hazard model, in words)	Hazard ratio, risk of lung cancer ([1]; multivariate Cox proportion hazard model, use/no use)	Proliferation of malignant glioma cells (malignant glioma cells)	Effect on fibrosis caused by pancreatic cancer [3]
CC(=O)N[C@@H](CS)C(=O)O [N-acetyl cysteine]	significantly decrease the risk factors of incidence of lung cancer	–	–	–	–	–	–	–	–	–	–	–
Cc1ccc(=O)n(-c2ccccc2)c1 [Pirfenidone, 5-methyl-1-phenyl-2-(1H)-pyridone]	significantly decrease the risk factors of incidence of lung cancer	acute exacerbation was inhibited	1.1	1.2	2.3	0	2.5	6.4	only factor decreasing the risk of lung cancer	0.128	inhibited proliferation	inhibitory effects on fibrosis
